In test [1] the target is human MASP1 (Homo sapiens (Human), UniProt P48740). The test is described as follows: Biochemical human MASP1 assay (FRET substrate). Conditions: Average IC50; recombinant human MASP1; read-out: human MASP1 IC50. The source says:
A truncated cDNA sequence of human MASP1 encoding the fragment corresponding to the amino acids 297-699 with a C-terminal His Tag and N-terminal Ig-kappa secretion signal (SEQ ID No: 2) was subcloned into the mammalian expression vector pcDNA3.1 (Invitrogen).
The MASP1 or MASP2 expression vectors were transfected into the HEK293 (ATCC No. CRL-1573) cell line using Lipofectamine LTX® Reagent (Thermo-Fischer), as described by the manufacturer. The mature form of the recombinant human MASP1 and MASP2 proteases were secreted into the culture medium. The MASP1 and MASP2 proteins were purified from the conditioned media by affinity chromatography on Ni-NTA Superflow resin (Qiagen) as described by the manufacturer.
2.2 Biochemical Human MASP1 Assay
Recombinant human MASP1 enzyme produced in the HEK 293 cells was diluted in the reaction buffer (50 mM HEPES pH 8,0; 100 mM NaCl; 0,01% CHAPS; 0.5 mM Gluthathione) to the concentration of 20 nM and 25 μl was transferred into each single well of 384-well white microtiter plate (Greiner Bio One 781075). 1 μl of the inhibitor compound solution (dissolved in DMSO, at the corresponding concentration) or pure DMSO as a control was added to the same wells. The enzymatic reaction was initiated by addition of 25 μl of 20 μM solution of the FRET substrate ABZ-[…]-Lys (Dnp)-NH2; (ABZ-2-aminobenzoyl; DNP 2,4-dinitrophenyl; custom synthesis by Jerini Peptide Technologies, Berlin) in the reaction buffer. The microtiter plate was incubated for 60-120 min at the temperature of 32 C. The increase of fluorescence intensity was measured in appropriate fluorescence plate reader (e.g. TECAN Ultra) using excitation wavelength of 320 nm and emission wavelength of 420 nm. IC50 values were calculated from percentage of inhibition of human MASP1 activity as a function of test compound concentration.

The target of test [2] is human MASP2 (Homo sapiens (Human), UniProt O00187). Kind of test: Biochemical human MASP2 assay (FRET substrate). Conditions: Average IC50; recombinant human MASP2; read-out: human MASP2 IC50. The source says: The MASP1 or MASP2 expression vectors were transfected into the HEK293 (ATCC No. CRL-1573) cell line using Lipofectamine LTX® Reagent (Thermo-Fischer), as described by the manufacturer. The mature form of the recombinant human MASP1 and M[…] were secreted into the culture medium. The MASP1 and M[…] were purified from the conditioned media by affinity chromatography on Ni-NTA Superflow resin (Qiagen) as described by the manufacturer. 2.3 Biochemical Human MASP2 Assay […] The enzymatic reaction was initiated by addition of 25 μl of 60 μM solution of the FRET substrate DABCYL-[…]; […] The microtiter plate was incubated for 60-120 min at the temperature of 32 C. The increase of fluorescence intensity was measured in appropriate fluorescence plate reader (e.g. TECAN Ultra) using excitation wavelength of 340 nm and emission wavelength of 490 nm. IC50 values were calculated from percentage of inhibition of human MASP2 activity as a function of test compound concentration.

*1 amine or outer side, *2 acyl side, *3 side chain or, on linkers, in order; H or OH if unused. Where a SMILES comes first, the peptide text is derived from it. Bridges are numbered along the chain shown (N, C = ends). [ ]: non-standard residue; d: D form. X6 = O=C(CCC(=O)[*:1])NCCCOCCOCCOCCCN[*:2]; Oic = O=C(O)[C@@H]1C[C@@H]2CCCC[C@@H]2N1; tBuAla = CC(C)(C)C[C@H](N)C(=O)O; Pen = CC(C)(S)[C@H](N)C(=O)O; NMeC = CN[C@@H](CS)C(=O)O; Orn = NCCC[C@H](N)C(=O)O; Ahx = NCCCCCC(=O)O

Chain of human MASP1 (P48740 other isoform, or with tags, fused parts or gaps): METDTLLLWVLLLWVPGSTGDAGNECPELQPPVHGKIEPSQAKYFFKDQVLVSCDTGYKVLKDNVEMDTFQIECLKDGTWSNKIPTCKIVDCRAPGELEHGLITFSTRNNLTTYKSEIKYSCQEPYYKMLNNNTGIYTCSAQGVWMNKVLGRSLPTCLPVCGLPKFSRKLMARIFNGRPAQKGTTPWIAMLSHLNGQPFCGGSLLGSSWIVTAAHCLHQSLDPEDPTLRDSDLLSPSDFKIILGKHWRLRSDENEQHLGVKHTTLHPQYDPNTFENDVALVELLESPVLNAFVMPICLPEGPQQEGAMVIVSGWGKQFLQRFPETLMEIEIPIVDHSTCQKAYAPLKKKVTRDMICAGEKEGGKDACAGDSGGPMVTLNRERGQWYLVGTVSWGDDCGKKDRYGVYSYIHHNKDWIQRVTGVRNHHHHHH
Chain of human MASP2 (O00187 other isoform, or with tags, fused parts or gaps): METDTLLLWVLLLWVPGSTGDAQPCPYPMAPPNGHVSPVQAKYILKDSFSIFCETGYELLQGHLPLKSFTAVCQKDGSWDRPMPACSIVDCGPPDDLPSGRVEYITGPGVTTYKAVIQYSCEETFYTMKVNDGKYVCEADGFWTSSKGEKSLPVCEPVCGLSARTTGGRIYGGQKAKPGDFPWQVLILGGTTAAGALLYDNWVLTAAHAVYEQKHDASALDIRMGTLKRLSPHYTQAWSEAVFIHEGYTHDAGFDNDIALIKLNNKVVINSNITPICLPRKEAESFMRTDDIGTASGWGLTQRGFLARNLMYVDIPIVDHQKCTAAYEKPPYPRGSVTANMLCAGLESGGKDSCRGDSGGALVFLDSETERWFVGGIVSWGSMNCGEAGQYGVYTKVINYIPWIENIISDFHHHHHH

As to `CC[C@H](C)[C@@H]1NC(=O)CNC(=O)CCCCCNC(=O)C[C@@H](C(N)=O)NC(=O)[C@@H]2CCCN2C(=O)[C@H]([C@@H](C)CC)NC(=O)[C@@H]2CSSC[C@H](NC1=O)C(=O)N[C@@H](CO)C(=O)N[C@@H](CCCNC(=N)N)C(=O)N[C@@H](CO)C(=O)N[C@@H](CC(C)(C)C)C(=O)N1CCC[C@H]1C(=O)N1CCC[C@H]1C(=O)N[C@@H]([C@@H](C)CC)C(=O)N2C` [Example 40] ([Ahx]GICSRS[tBuAla]PPI[NMeC]IPD-NH2; disulfide 4-12; lactam N-15), the half-inhibitory concentration (IC50) – broadly, the concentration at which inhibition is half-maximal – turned out to be 7.1 nM in test [1] and 90 nM in test [2].

As to `CC[C@H](C)[C@@H]1NC(=O)[C@H](C)NC(=O)CNC(=O)[C@H](C)NC(=O)C[C@@H](C(N)=O)NC(=O)[C@@H]2CCCN2C(=O)[C@H]([C@@H](C)CC)NC(=O)[C@H]2NC(=O)[C@H]([C@@H](C)CC)NC(=O)[C@@H]3C[C@@H]4CCCC[C@@H]4N3C(=O)[C@@H]3CCCN3C(=O)[C@H](CC(C)C)NC(=O)[C@H](CO)NC(=O)[C@H](CCCNC(=N)N)NC(=O)[C@H](CO)NC(=O)[C@H](CSSC2(C)C)NC1=O` [Example 41] (AGAICSRSLP[Oic]I[Pen]IPD-NH2; disulfide 5-13; lactam N-16), the IC50 was found to be 5.9 nM in test [1] and 190 nM in test [2].

As to `CC[C@H](C)[C@@H]1NC(=O)CNC(=O)CNC(=O)[C@H](C)NC(=O)C[C@@H](C(N)=O)NC(=O)[C@@H]2CCCN2C(=O)[C@H]([C@@H](C)CC)NC(=O)[C@H]2NC(=O)[C@H]([C@@H](C)CC)NC(=O)[C@@H]3C[C@@H]4CCCC[C@@H]4N3C(=O)[C@@H]3CCCN3C(=O)[C@H](CC(C)C)NC(=O)[C@H](CO)NC(=O)[C@H](CCCNC(=N)N)NC(=O)[C@H](CO)NC(=O)[C@H](CSSC2(C)C)NC1=O` [Example 42] (AGGICSRSLP[Oic]I[Pen]IPD-NH2; disulfide 5-13; lactam N-16), the half-inhibitory concentration (IC50) in test [1] amounted to 13 nM; in test [2], 200 nM.

With `CC[C@H](C)[C@@H]1NC(=O)[C@H](C)NC(=O)CCCCCNC(=O)[C@H](CC(=O)O)NC(=O)[C@@H]2CCCN2C(=O)[C@H]([C@@H](C)CC)NC(=O)[C@@H]2CSSC[C@H](NC1=O)C(=O)N[C@@H](CO)C(=O)N[C@@H](CCCNC(=N)N)C(=O)N[C@@H](CO)C(=O)N[C@@H](CC(C)C)C(=O)N1CCC[C@H]1C(=O)N1CCC[C@H]1C(=O)N[C@@H]([C@@H](C)CC)C(=O)N2` [Example 45] (cyclo(AICSRSLPPICIPD[Ahx]); disulfide 3-11), the IC50 was determined as 92 nM in test [1] and 74 nM in test [2].

Consider `CC[C@H](C)[C@@H]1NC(=O)CNC(=O)CNC(=O)[C@H](C)NC(=O)[C@@H](CC(=O)O)NC(=O)[C@@H]2CCCN2C(=O)[C@H]([C@@H](C)CC)NC(=O)[C@@H]2CSSC[C@H](NC1=O)C(=O)N[C@@H](CO)C(=O)N[C@@H](CCCNC(=N)N)C(=O)N[C@@H](CO)C(=O)N[C@@H](CC(C)(C)C)C(=O)N1CCC[C@H]1C(=O)N1CCC[C@H]1C(=O)N[C@@H]([C@@H](C)CC)C(=O)N2C` [Example 47] (cyclo(AGGICSRS[tBuAla]PPI[NMeC]IP[dD]); disulfide 5-13), for which the IC50 stood at 8.2 nM in test [1] and 66 nM in test [2].

With `CC[C@H](C)[C@@H]1NC(=O)CNC(=O)CCCCCNC(=O)C[C@@H](C(N)=O)NC(=O)[C@@H]2CCCN2C(=O)[C@H]([C@@H](C)CC)NC(=O)[C@H]2NC(=O)[C@H]([C@@H](C)CC)NC(=O)[C@@H]3CCCN3C(=O)[C@@H]3CCCN3C(=O)[C@H](CC(C)(C)C)NC(=O)[C@H](CO)NC(=O)[C@H](CCCNC(=N)N)NC(=O)[C@H](CO)NC(=O)[C@H](CSSC2(C)C)NC1=O` [Example 48] ([Ahx]GICSRS[tBuAla]PPI[Pen]IPD-NH2; disulfide 4-12; lactam N-15), the 50% inhibitory concentration (IC50) in test [1] stood at 10 nM; in test [2], 70 nM.

Take `CC[C@H](C)[C@@H]1NC(=O)CNC(=O)CCCCCNC(=O)C[C@@H](C(N)=O)NC(=O)[C@@H]2CCCN2C(=O)[C@H]([C@@H](C)CC)NC(=O)[C@H]2NC(=O)[C@H]([C@@H](C)CC)NC(=O)[C@@H]3C[C@@H]4CCCC[C@@H]4N3C(=O)[C@@H]3CCCN3C(=O)[C@H](CC(C)C)NC(=O)[C@H](CO)NC(=O)[C@H](CCCNC(=N)N)NC(=O)[C@H](CO)NC(=O)[C@H](CSSC2(C)C)NC1=O` [Example 49] ([Ahx]GICSRSLP[Oic]I[Pen]IPD-NH2; disulfide 4-12; lactam N-15): the IC50 in test [1] came to 19 nM; in test [2], 140 nM.

Regarding `CC[C@H](C)[C@@H]1NC(=O)[C@H](C)NC(=O)CCC(=O)NCCCOCCOCCOCCCNC(=O)[C@H](CC(=O)O)NC(=O)[C@@H]2CCCN2C(=O)[C@H]([C@@H](C)CC)NC(=O)[C@H]2NC(=O)[C@H]([C@@H](C)CC)NC(=O)[C@@H]3CCCN3C(=O)[C@@H]3CCCN3C(=O)[C@H](CC(C)(C)C)NC(=O)[C@H](CO)NC(=O)[C@H](CCCNC(=N)N)NC(=O)[C@H](CO)NC(=O)[C@H](CSSC2(C)C)NC1=O` [Example 63] (AICSRS[tBuAla]PPI[Pen]IPD; disulfide 3-11; linker N-C via X6), the results for the IC50 in test [1] and in test [2] were 28 nM and 170 nM, respectively.

Take `CC[C@H](C)[C@@H]1NC(=O)CNC(=O)[C@H](CCCN)NC(=O)[C@H]([C@@H](C)CC)NC(=O)[C@H]2NC(=O)[C@H]([C@@H](C)CC)NC(=O)[C@@H]3CCCN3C(=O)[C@@H]3CCCN3C(=O)[C@H](CC(C)(C)C)NC(=O)[C@H](CO)NC(=O)[C@H](CCCNC(=N)N)NC(=O)[C@H](CO)NC(=O)[C@H](CSSC2(C)C)NC1=O` [Example 65, N-{3-[(5aS,11S,14S,17S,20S,23R,26S,32S,35S,38R,41S,43aS)-32-(3-aminopropyl)-26,35,41-tri[(2S)-butan-2-yl]-11-(2,2-dimethylpropyl)-14,20-bis(hydroxymethyl)-44,44-dimethyl-5,10,13,16,19,22,25,28,31,34,37,40,43-tridecaoxodotetracontahydro-5H-23,38-(methanodithiomethano)dipyrrolo[1,2-a:1′,2′-d][1,4,7,10,13,16,19,22,25,28,31,34,37]tridecaazacyclononatriacontin-17-yl]propyl}guanidine] (cyclo(CSRS[tBuAla]PPI[Pen]I[Orn]GI); disulfide 1-9): the figures for the 50% inhibitory concentration (IC50) in test [1] and in test [2] were 49 nM and 540 nM, respectively.

On to `CC[C@H](C)[C@@H]1NC(=O)[C@@H](N)CCCNC(=O)[C@@H]2CCCN2C(=O)[C@H]([C@@H](C)CC)NC(=O)[C@H]2NC(=O)[C@H]([C@@H](C)CC)NC(=O)[C@@H]3CCCN3C(=O)[C@@H]3CCCN3C(=O)[C@H](CC(C)(C)C)NC(=O)[C@H](CO)NC(=O)[C@H](CCCNC(=N)N)NC(=O)[C@H](CO)NC(=O)[C@H](CSSC2(C)C)NC1=O` [Example 71, N-{3-[(6S,9S,12S,15S,18R,21S,24S,29aS,35S,38R,41S,43aS,48aS)-24-amino-21,35,41-tri[(2S)-butan-2-yl]-6-(2,2-dimethylpropyl)-9,15-bis(hydroxymethyl)-49,49-dimethyl-5,8,11,14,17,20,23,29,34,37,40,43,48-tridecaoxohexatetracontahydro-1H,5H-18,38-(methanodithiomethano)tripyrrolo[2,1-c:2′,1′-o:2″,1″-r][1,4,7,10,13,16,19,22,25,28,31,34,37]tridecaazacyclodotetracontin-12-yl]propyl}guanidine] (H-[Orn]ICSRS[tBuAla]PPI[Pen]IP; lactam 1-C; disulfide 3-11), for which the figures for the IC50 in test [1] and in test [2] were 21 nM and 24 nM, respectively.

The values above are taken from US20240010684A1, “MASP INHIBITORY COMPOUNDS AND USES THEREOF” (BAYER AKTIENGESELLSCHAFT, priority 2020, published 2024).
